Experimental data from patent publication US7452704B2, “Dehydrogenase and a gene encoding the same” (priority 2002, dated 2008).

B1: present enzyme: novel dehydrogenase from Pseudomonas putida ATCC 12633, polypeptide of SEQ ID No. 1 (protein, listed as Pseudomonas putida)
chain: MSAPSTSTVVRVPFTELQSLLQAIFQRHGCSEAVARVLAHNCASAQRDGAHSHGVFRMPGYVSTLASGWVDGQATPQVSDVAAGYVRVDAAGGFAQPALAAARELLVAKARSAGIAVLAIHNSHHFAALWPDVEPFAEEGLVALSVVNSMTCVVPHGARKPLFGTNPIAFAAPCAEHDPIVFDMATSAMAHGDVQIAARAGQQLPEGMGVDADGQPTTDPKAILEGGALLPFGGHKGSALSMMVELLAAALTGGHFSWEFDWSGHPGAKTPWTGQLIIVINPGKAEGERFAQRSRELVEHMQAVGLTRMPGERRYREREVAEEEGVAVTEQELQGLKELLG

How the values were obtained:
Format in all cases: biochemical, Pseudomonas putida ATCC 12633
[1] = molecular target: T1, N-methyl-L-phenylalanine dehydrogenase (Pseudomonas putida, UniProt Q5FB93); assay: Substrate specificity for keto acids with NADPH as coenzyme (Example 6); conditions: keto acid 10 mM, NADPH 0.2 mM, methylamine pH 10 60 mM, 37° C.; β-phenylpyruvic acid = 100%
T1 construct: made in house
Procedure: (§1) Purified form of the present enzyme was obtained from cloned Escherichia coli cells in the same way as in Example 5.
Enzyme activity was measured by adding thereto various keto acids shown in Table 3 to a final concentration of 10 mM, NADPH to a final concentration of 0.2 mM, and methylamine adjusted to pH 10 with sulfuric acid to a final concentration of 60 mM, and examining the change in absorbance of the reaction mixture at 340 nm. The reaction temperature during measurement was 37° C. Defining the activity of the enzyme when β-phenylpyruvic acid was used as the substrate as 100%, the results are shown in Table 3 for relative activity.

[2] = molecular target: T1, N-methyl-L-phenylalanine dehydrogenase; assay: Substrate specificity for keto acids with NADH as coenzyme (Example 11); conditions: keto acid 40 mM (β-phenylpyruvic acid 30 mM), NADH 0.3 mM, methylamine 180 mM, pH 10.0, 37° C.; pyruvic acid = 100%
Procedure: as §1
Enzyme activity was measured by adding thereto various keto acids shown in Table 4 to a final concentration of 40 mM (except for β-phenylpyruvic acid, which was 30 mM), NADH to a final concentration of 0.3 mM, bis-Tris propane buffer (pH 10.0) to a final concentration of 100 mM, and methylamine to a final concentration of 180 mM, and examining the change in absorbance of the reaction solution at 340 nm. The reaction temperature during measurement was 37° C.

[3] = molecular target: T1, N-methyl-L-phenylalanine dehydrogenase; assay: Reverse reaction with NAD as coenzyme (Example 13); conditions: N-methyl-L-alanine 50 mM, NAD 10 mM, pH 10.0, 37° C.
Procedure: as §1
Enzyme activity was measured by adding thereto N-methyl-L-alanine to a final concentration of 50 mM, NAD to a final concentration of 10 mM, and bis-Tris propane buffer (pH 10.0) to a final concentration of 100 mM, and examining the change in absorbance of the reaction mixture at 340 nm. The reaction temperature during measurement was 37° C. The activity was 7.8×10^−3 (u/mg of protein).

[4] = molecular target: T1, N-methyl-L-phenylalanine dehydrogenase; assay: Substrate specificity for amines with NADPH as coenzyme (Example 14)
Procedure: as §1
Enzyme activity was measured by adding thereto various amines shown in Table 5 to a final concentration of 60 mM, NADPH to a final concentration of 0.2 mM, and β-phenylpyruvic acid to a final concentration of 10 mM, and examining the change in absorbance of the reaction solution at 340 nm. The reaction temperature during measurement was 37° C.

[5] = molecular target: dehydrogenase represented by the amino acid sequence of SEQ ID No. 1 (Pseudomonas putida, UniProt Q5FB93); assay: Inhibition of dehydrogenase activity by divalent heavy metals; conditions: 0.01 mM
[6] = molecular target: T2, N-methyl-L-phenylalanine dehydrogenase (Pseudomonas putida, UniProt Q5FB93); assay: Measurement of optimal pH when NADH is the coenzyme (Example 12); conditions: pyruvic acid 80 mM, NADH 0.3 mM, methylamine 180 mM, 37° C.
T2 construct: made in house
T2 sequence (Q5FB93 whole entry, looked up): B1 chain
Procedure: as §1
Enzyme activity was measured by adding thereto pyruvic acid to a final concentration of 80 mM, NADH to a final concentration of 0.3 mM, and methylamine adjusted to various pH values with sulfuric acid to a final concentration of 180 mM, and examining the change in absorbance of the reaction mixture at 340 nm. The reaction temperature during measurement was 37° C. […] The optimal pH of the reaction was 9.5.

[7] = molecular target: T2, N-methyl-L-phenylalanine dehydrogenase; assay: Optimal working temperature for the enzyme (Example 8); conditions: phenylpyruvic acid and methylamine as substrates, pH 10; listed as dehydrogenase represented by the amino acid sequence of SEQ ID No. 1
Procedure: Activity was measured using the same reaction conditions as in Example 6 and with methylamine-sulfuric acid (pH 10), except that the temperature was varied. The optimal temperature was 30 to 40° C.

[8] = molecular target: T2, N-methyl-L-phenylalanine dehydrogenase; assay: Thermal stability of the enzyme (Example 10)
Procedure: The purified enzyme obtained in Example 5 was left at 25° C., 30° C., 35° C., 40° C., 45° C., and 50° C. for 30 minutes, and then measured for activity as in Example 7. The results are shown in FIG. 4 as remaining activity, with the activity of the untreated enzyme (left in ice) defined as 100.

[9] = molecular target: T2, N-methyl-L-phenylalanine dehydrogenase; assay: Measurement of optimal pH, NADPH (Example 7); conditions: phenylpyruvic acid and methylamine as substrates, 37° C.
Procedure: as §1
Enzyme activity was measured by adding thereto β-phenylpyruvic acid to a final concentration of 10 mM, NADPH to a final concentration of 0.2 mM, and methylamine adjusted to various pH values with sulfuric acid to a final concentration of 60 mM, and examining the change in absorbance of the reaction solution at 340 nm. The reaction temperature during measurement was 37° C. Defining the amount of enzyme that react with 1 micromole of β-phenylpyruvic acid per minute as 1 unit, the results are shown in FIG. 1 for the relationship between the number of units per protein amount (u/mg) and pH. The optimal pH of the reaction was 10.0.

present dehydrogenase = molecular target: T3, present dehydrogenase (Pseudomonas putida, UniProt Q5FB93); assay: Activity of the present dehydrogenase in crude extract of co-expressing Escherichia coli (Example 18); conditions: crude cellular extract; pH 10.0, 0.2 mM NADPH, 30 mM methylamine, 10 mM sodium pyruvate, 30° C.
T3 construct: made in house; host or cells: Escherichia coli BL21 (DE3) carrying pENMadh and pSTV28-GDH; crude cellular extract
T3 sequence (Q5FB93 1-341): B1 chain
Procedure: Activity of the present dehydrogenase was measured in a reaction mixture containing 100 mM bis-trispropane buffer (pH 10.0), 0.2 mM NADPH, 30 mM methylamine, and 10 mM sodium pyruvate at 30° C. 1 U was defined as the amount of the enzyme capable of oxidizing 1 μmol of NADPH per minute under the above reaction conditions.

[10] = amine 60 mM, NADPH 0.2 mM, β-phenylpyruvic acid 10 mM, 37° C., methylamine = 100%

Molecule | Relative activity [1] [%] | Relative activity [2] [%] | Relative activity [4, 10] [%] | other results
CCCC(=O)C(=O)O [2-keto-n-valeric acid] | 53 | 7.5 | – | –
CCC(=O)C(=O)O [2-ketobutyric acid] | 98 | 15 | – | –
CCCCC(=O)C(=O)O [2-ketohexanoic acid] | 174 | 20 | – | –
CCCCCCC(=O)C(=O)O [2-ketooctanoic acid] | 25 | – | – | –
CN[C@@H](C)C(=O)O [N-methyl-L-alanine] | – | – | – | activity (reverse reaction) [3]: 7.8×10^−3 u/mg of protein
CCCN [N-propylamine] | – | – | 1.1 | –
N [ammonium] | – | – | – | Relative activity [4]: 0%
[Cl][Cu][Cl] [copper chloride (CuCl2), copper chloride] | – | – | – | effect on dehydrogenase activity [5]: inhibited
NC1CCCCC1 [cyclohexanamine] | – | – | 1.3 | –
CNC [dimethylamine] | – | – | 1.4 | –
CCN [ethylamine] | – | – | 1.5 | –
CC(C)N [isopropylamine] | – | – | 1.5 | –
[Cl][Hg][Cl] [mercury chloride (HgCl2), mercury chloride] | – | – | – | effect on dehydrogenase activity [5]: inhibited
CN [methylamine] | – | – | 100 | –
O=C(O)C(=O)Cc1ccccc1 [phenylpyruvic acid] | 100 | 0 | – | –
CC(=O)C(=O)O [pyruvic acid] | 334 | 100 | – | –
O=C(O)C(=O)CF [β-fluoropyruvic acid] | 90 | 4.2 | – | –
B1 | – | – | – | optimal pH [6]: 9.5; optimal temperature [7]: around 35 °C; remaining activity ([8]; left 30 minutes, up to 30° C., untreated enzyme = 100): 100%; temperature of thermal stability ([8]; treated at optimal pH (pH 10) for 30 minutes): < 30 °C; optimal pH [9]: 10.0; optimal pH ([9]; listed as dehydrogenase of the present invention): around 10; activity of the present dehydrogenase (present dehydrogenase): 6.6 U/mg of protein
